Results taken from paper PMC9890130 (Clinical cancer research : an official journal of the …, 2023).

What was measured:
[1] = Biodistribution of [^68Ga]Ga-DK385; format: in vivo, mice; conditions: mouse, iv, 50 uCi, total radioactivity
[2] = cited from earlier work
BFTC909 xenografts [3] = experiment: [^68Ga]Ga-DK223 PET-CT of BFTC909 xenografts after aPD-L1 treatment; format: in vivo, NSG mice
BFTC909 xenografts [4] = format: in vivo, NSG mice; conditions: 10 mg/kg; for accessible PD-L1 levels: 120 h of treatment, tumor %ID/g as fraction of saline group; for [^68Ga]Ga-DK223 tumor uptake versus saline controls: 120 h treatment
BFTC909 cells = experiment: [^68Ga]Ga-DK223 uptake in BFTC909 cells with and without aPD-L1 mAbs; format: cell-based, human; conditions: 60 nM mAb
[5] = 24 h after 10 mg/kg mAb i.v., PET 60 min after tracer

CCCC[C@H]1C(=O)N(C)[C@@H](CCCC)C(=O)N[C@@H](CCCCNC(=O)CCC(C(=O)O)N2CCN(CC(=O)O)CCN(CC(=O)O)CCN(CC(=O)O)CC2)C(=O)N[C@H](C(=O)NCC(N)=O)CSCC(=O)N[C@@H](Cc2ccc(O)cc2)C(=O)N(C)[C@@H](C)C(=O)N[C@@H](CC(N)=O)C(=O)N2CCC[C@H]2C(=O)N[C@@H](Cc2c[nH]cn2)C(=O)N[C@@H](CCC(=O)O)C(=O)N2C[C@H](O)C[C@H]2C(=O)N[C@@H](Cc2c[nH]c3ccccc23)C(=O)N[C@@H](CO)C(=O)N[C@@H](Cc2cn(CC(=O)O)c3ccccc23)C(=O)N1C (stereo partly drawn) [[^68Ga]Ga-DK385, metal not drawn]
tissue to tissue ratio at 1 h ([1]; tumor and blood): 2.32 ± 0.38
tissue to tissue ratio at 1 h ([1]; tumor and muscle): 19.9 ± 2.15
tissue uptake at 1 h ([1]; tumor): 8.5 ± 1.67 %ID/g

avelumab
half-life [2]: 6.1 days
[^68Ga]Ga-DK223 uptake in tumors (PET) after mAb treatment (BFTC909 xenografts [3]; [5]): significantly lower uptake
[^68Ga]Ga-DK223 uptake in tumors (PET) after mAb treatment (BFTC909 xenografts [3]; 72 h after 10 mg/kg mAb i.v., avelumab compared with durvalumab): increased
reduction of [^68Ga]Ga-DK223 tumor uptake versus saline (BFTC909 xenografts [4]; 24 h treatment, P<0.0001): more than 80%
accessible PD-L1 levels (BFTC909 xenografts [4]): increase in accessible PD-L1 levels
[^68Ga]Ga-DK223 tumor uptake versus saline controls (BFTC909 xenografts [4]): no significant differences
[^68Ga]Ga-DK223 uptake in BFTC909 cells in presence of mAb (BFTC909 cells): less than 1%

durvalumab
half-life [2]: 18 days
[^68Ga]Ga-DK223 uptake in tumors (PET) after mAb treatment (BFTC909 xenografts [3]; [5]): significantly lower uptake
accessible PD-L1 levels (BFTC909 xenografts [4]): less than 10%
[^68Ga]Ga-DK223 tumor uptake versus saline controls (BFTC909 xenografts [4]): continued reduction in accessible target levels
[^68Ga]Ga-DK223 uptake in BFTC909 cells in presence of mAb (BFTC909 cells): less than 1%
